Data: patent publication US20240382511A1, “NICOTINAMIDE MONONUCLEOTIDE DERIVATIVES AND USE THEREOF FOR THE TREATMENT OF HEART FAILURE WITH PRESERVED EJECTION FRACTION” (NUVAMID SA, priority 2021, published 2024)

Key:
Assay type in all cases: in vivo, hamster (Golden Syrian)
[1] = test system: free choice fed hamsters (diet-induced NASH hamster model of HFpEF); assay: Body weight, food and water intake in diet-induced NASH hamster model of HFpEF; conditions: treatment once a day per os from week 15, 5 weeks (compound 001 600 mg/kg, vardenafil 10 mg/kg), FIG. 5
Text: (§1) Animals. Male hamsters (Golden Syrian), 4-week-old at receipt, were acclimated at least 5 days before the beginning of the study. Control animals were fed with a chow diet with normal tap water. For diet-induced NASH model, animals were fed with a free choice diet consisting of (a) a chow diet with normal water and (b) a high fat/cholesterol diet with 10% fructose enriched tap water. Food and water intake have been measured once a week. Dosage regimen and test groups. Animals were divided into 5 groups: [table] The study was conducted over 20 weeks. Treatments were administered from week 15 until the end of the experiment (duration 5 weeks), once a day, per os, at a rate of 10 ml/kg. Water was used as vehicle. Vardenafil was used as reference compound. Data analysis. All graphs represent means±standard error of mean (sem). Statistical analysis has been performed using GraphPad Prism 5 software. Single comparisons were made using Student's unpaired t-test or Mann Whitney in case of significant variance. […] During 20 weeks of diet including 5 weeks under treatment with vehicle, compound 001, vardenafil or both, body weight, food and water intake were recorded once a week. Blood was collected at week 14 and week 20 to measure plasma insulin, glucose and ALT/AST, and NT-pro BNP level was evaluated at week 20. Echocardiographic studies were assessed at week 14 and week 20. […]

[2] = test system: free choice fed hamsters (diet-induced NASH hamster model of HFpEF); assay: Echocardiography (left ventricular function and dimensions) in diet-induced NASH hamster model of HFpEF; conditions: for cardiac parameters (overall conclusion): diet-induced NASH hamster model, end of 5-week treatment period
Text: Animals. Male hamsters (Golden Syrian), 4-week-old at receipt, were acclimated at least 5 days before the beginning of the study. Control animals were fed with a chow diet with normal tap water. For diet-induced NASH model, animals were fed with a free choice diet consisting of (a) a chow diet with normal water and (b) a high fat/cholesterol diet with 10% fructose enriched tap water. Food and water intake have been measured once a week. Dosage regimen and test groups. Animals were divided into 5 groups: [table] The study was conducted over 20 weeks. Treatments were administered from week 15 until the end of the experiment (duration 5 weeks), once a day, per os, at a rate of 10 ml/kg. Water was used as vehicle. Vardenafil was used as reference compound. Echocardiography. Left ventricular function and dimensions were assessed 14 and 20 weeks after the start of diet using two-dimensional echocardiograph (VF16-5 probe, Siemens, Acuson NX3 Elite). Numeric images of the heart were obtained in parasternal long and short-axis views using or not time motion for systolic function and in apical four chambers view with doppler mode for diastolic function. Heart rate, left ventricular end-diastolic and end-systolic diameters and volumes, as well as posterior and anterior wall thicknesses in diastole and systole, mitral flow velocity (E and A waves), the isovolumic relaxation time (IVRT), and annular tissue velocity of the mitral valve (e′ and a′ peaks) were measured. Left ventricular ejection fraction, fractional shortening, E/A ratio and E/E′ ratio were then calculated. Data analysis. All graphs represent means±standard error of mean (sem). Statistical analysis has been performed using GraphPad Prism 5 software. Single comparisons were made using Student's unpaired t-test or Mann Whitney in case of significant variance. Multiple comparisons have been carried out with two-way ANOVA followed by post-hoc Bonferroni test or one-way ANOVA followed by post-hoc Dunnett or Kruskall-Wallis test in case of significant variance. For all tests, p<0.05 was considered significant.

[3] = test system: free choice fed hamsters (diet-induced NASH hamster model of HFpEF); assay: Biochemical analysis (glucose, plasma insulin, ALT/AST, NT pro-BNP) in diet-induced NASH hamster model of HFpEF
Text: Animals. Male hamsters (Golden Syrian), 4-week-old at receipt, were acclimated at least 5 days before the beginning of the study. Control animals were fed with a chow diet with normal tap water. For diet-induced NASH model, animals were fed with a free choice diet consisting of (a) a chow diet with normal water and (b) a high fat/cholesterol diet with 10% fructose enriched tap water. Food and water intake have been measured once a week. Dosage regimen and test groups. Animals were divided into 5 groups: [table] The study was conducted over 20 weeks. Treatments were administered from week 15 until the end of the experiment (duration 5 weeks), once a day, per os, at a rate of 10 ml/kg. Water was used as vehicle. Vardenafil was used as reference compound. Biochemical analysis. After 14 and 20 weeks of diet, blood was collected through tail vein, saphenous vein or retro orbital sinus after a 6 h fasting period to measure respectively glucose, plasma insulin and ALT/AST. After 20 weeks of diet, blood was collected and centrifuged to obtain plasma which was used to measure NT pro-BNP in plasma. Data analysis. All graphs represent means±standard error of mean (sem). Statistical analysis has been performed using GraphPad Prism 5 software. Single comparisons were made using Student's unpaired t-test or Mann Whitney in case of significant variance. Multiple comparisons have been carried out with two-way ANOVA followed by post-hoc Bonferroni test or one-way ANOVA followed by post-hoc Dunnett or Kruskall-Wallis test in case of significant variance. For all tests, p<0.05 was considered significant.

[4] = test system: free choice fed hamsters (diet-induced NASH hamster model of HFpEF); assay: Organ weights (heart, liver, lungs), normalized or not to tibia length, in diet-induced NASH hamster model of HFpEF; conditions: normalized to tibia length; after 20 weeks of diet including 5 weeks of treatment per os (compound 001 600 mg/kg, vardenafil 10 mg/kg); FIG. 11
Text: as §1

## NC(=O)c1ccc[n+]([C@@H]2O[C@H](COP(=O)([O-])O)[C@@H](O)[C@H]2O)c1 [compound 001, nicotinamide mononucleotide]
[1]
  body weight / body weight gain: significant decrease in body weight
[2]
  cardiac parameters (overall conclusion): improved most of cardiac parameters
[2]; listed as NMN
  cardiac parameters (overall conclusion): improve cardiac parameters
[2]; echocardiography after 20 weeks of diet including 5 weeks of treatment per os (compound 001 600 mg/kg, vardenafil 10 mg/kg)
  diastolic function: improved diastolic function
[2]; echocardiography after 20 weeks of diet including 5 weeks of treatment per os (compound 001 600 mg/kg, vardenafil 10 mg/kg), vs free choice vehicle, FIG. 8A
  E/A ratio: significant decrease in E/A ratio
[2]; echocardiography after 20 weeks of diet including 5 weeks of treatment per os (compound 001 600 mg/kg, vardenafil 10 mg/kg), vs free choice vehicle, FIG. 8B
  E′/A′ ratio: increased E′/A′ ratio
[2]; echocardiography after 20 weeks of diet including 5 weeks of treatment per os (compound 001 600 mg/kg, vardenafil 10 mg/kg), vs free choice vehicle, FIG. 8D
  E/E′ ratio: E/E′ ratio decreased
[2]; echocardiography after 20 weeks of diet including 5 weeks of treatment per os (compound 001 600 mg/kg, vardenafil 10 mg/kg), vs free choice vehicle, FIG. 8E
  isovolumic relaxation time (IVRT): increased to normal levels
[3]; week 20, after 5 weeks of treatment per os (compound 001 600 mg/kg, vardenafil 10 mg/kg), FIG. 9C
  plasma insulin levels: tended to increase plasma insulin levels
[3]; week 20, after 5 weeks of treatment per os (compound 001 600 mg/kg, vardenafil 10 mg/kg), FIG. 9E
  HOMA-IR index: tended to increase plasma insulin levels and HOMA-IR index
[3]; week 20, after 5 weeks of treatment per os, 600 mg/kg, FIG. 9B
  plasma AST: tendency to restore plasma AST
[4]
  lung oedema (difference between wet and dry lung weight): non significantly reduced
